Source: patent US5741671A, “Isolation cloning and expression of transmembrane water channel aquaporin 1(AQP1)” (The Johns Hopkins University, priority 1995, dated 1998)

System: control-injected oocytes
Assay: Xenopus oocyte osmotic swelling assay, control-injected oocytes
Assay type: cell-based, Xenopus laevis
Conditions: no RNA injected, 0.3 mM HgCl2, 22° C.
Experimental: Expression of AQP1 in Xenopus oocytes. Oocytes were removed from female Xenopus laevis frogs and prepared as described by Dascal (CRC Crit. Rev. Biochem., 1987, 22:317-373). Oocytes were injected with 0.05 microliters of water (control) or the same volume of water containing 1-10 nanograms of AQP1 RNA. The oocytes were incubated for up to 96 hours at 18° C. in modified Barth's buffer (88 mM NaCl, 1 mM KCl, 0.8 mM MgSO4, 0.3 mM Ca(NO3)2, 0.4 mM CaCl2, 2.4 mm NaHCO3, 10 mM HEPES, pH=7.4, total osmolality=200 mOsm/kg) also containing antibiotics. The whole oocytes were then removed and total cellular protein was dissolved in 40 microliters of buffer containing 1% (w/v) SDS and analyzed by immunoblot (Towbin et al., 1979, Proc. Natl. Acad. Sci. USA 76:4350-4354).
A swelling assay was adapted from that of published work (Fischbarg et al., 1990, Proc. Natl. Acad. Sci. USA 87:3244-3247; Zhang et al., 1990, J. Biol. Chem. 265: 15375-15378). […] Swelling was monitored with a Nikon phase-contrast microscope equipped for videorecording. The longest (D1) and shortest (D2) diameters of the oocytes were measured at 15- to 30-second intervals. Oocyte volumes (V) at each time point were calculated relative to volume at the initial observation (Vo): […]

[Cl][Hg][Cl] [HgCl2]
Pf (osmotic water permeability): 20.3 cm/s x 10^-4
